Our source for the Ki values is ChEMBL document CHEMBL3638875, “Pyrazol-4-yl-heterocyclyl-carboxamide compounds and methods of use” (2014).

The target of assay [1] is Serine/threonine-protein kinase pim-3 (Homo sapiens, UniProt Q86V86). Kind of assay: Binding Assay: PIM-1, -2, and -3 enzymes were generated as fusion proteins expressed in bacteria and purified by IMAC column chromatography (Sun, X., Chiu, J. F., and He, Q. Y. (2005) Expert Rev. Proteomics, 2:649-657). A fluorescent-labeled Pim-specific peptide substrate, was custom synthesized by American Peptide Company (Sunnyvale, Calif.). Reaction Buffer contained 10 mM HEPES, pH 7.2, 10 mM MgCl2, 0.01% Tween 20, 2 mM DTT. Termination Buffer contained 190 mM HEPES, pH 7.2, 0.015% Brij-35, 0.2% Coating Reagent 3 (Caliper Life Sciences, Hopkinton, Mass.), 20 mM EDTA. Separation Buffer contained 100 mM HEPES, pH 7.2, 0.015% Brij-35, 0.1% Coating Reagent 3, 1:200 Coating Reagent 8 (Caliper Life Sciences, Hopkinton, Mass.), 10 mM EDTA and 5% DMSO.

In assay [2] the target is Serine/threonine-protein kinase pim-2 (Homo sapiens, UniProt Q9P1W9). Kind of assay: A fluorescent-labeled Pim-specific peptide substrate, was custom synthesized by American Peptide Company (Sunnyvale, Calif.). Reaction Buffer contained 10 mM HEPES, pH 7.2, 10 mM MgCl2, 0.01% Tween 20, 2 mM DTT. Termination Buffer contained 190 mM HEPES, pH 7.2, 0.015% Brij-35, 0.2% Coating Reagent 3 (Caliper Life Sciences, Hopkinton, Mass.), 20 mM EDTA. Separation Buffer contained 100 mM HEPES, pH 7.2, 0.015% Brij-35, 0.1% Coating Reagent 3, 1:200 Coating Reagent 8 (Caliper Life Sciences, Hopkinton, Mass.), 10 mM EDTA and 5% DMSO.
Chain of Serine/threonine-protein kinase pim-2 (Q9P1W9 whole entry): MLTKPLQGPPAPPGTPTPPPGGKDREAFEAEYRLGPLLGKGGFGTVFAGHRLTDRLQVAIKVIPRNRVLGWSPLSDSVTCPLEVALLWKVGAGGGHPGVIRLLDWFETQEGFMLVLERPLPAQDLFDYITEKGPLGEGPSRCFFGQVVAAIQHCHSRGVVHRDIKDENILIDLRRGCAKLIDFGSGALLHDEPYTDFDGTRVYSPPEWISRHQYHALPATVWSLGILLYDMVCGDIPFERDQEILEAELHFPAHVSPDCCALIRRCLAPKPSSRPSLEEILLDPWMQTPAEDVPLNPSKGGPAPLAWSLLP

For the compound `Cn1ncc(NC(=O)c2nc(Br)cnc2N)c1N1CCC[C@H](N)C1`, the inhibition constant Ki in assay [1] was found to be 68.1 nM; in assay [2] it was 154 nM.
